The record followed here is patent US7939548B2, “Certain chemical entities, compositions, and methods” (Cytokinetics, Inc., priority 2006, dated 2011).

In general, IC50 refers to the concentration needed to halve the response being measured.

The target of the experiment is T1, chicken gizzard smooth muscle myosin subfragment-1 chemically crosslinked to either cardiac or skeletal actin (Gallus gallus, UniProt P10587).
T1 construct: chicken gizzard smooth muscle myosin subfragment-1
The experiment in a line: Smooth muscle myosin ATPase dose response assay (pyruvate kinase/horseradish peroxidase/pyruvate oxidase-coupled). The conditions noted are these: ATPase activity of crosslinked smooth muscle actomyosin (subfragment-1); amplex red fluorescence; 4 parameter fit; read-out: IC50 Arithmetic Mean. The experiment is classed as biochemical. The protocol:
Screening assays were performed using a pyruvate kinase and lactate dehydrogenase-coupled ATPase assay containing the following reagents: Potassium PIPES (50 mM), MgCl2 (3 mM), KCl (100 mM), ATP (0.15 mM), DTT (1 mM), BSA (0.1 mg/ml), NADH (0.5 mM), PEP (1.5 mM), pyruvate kinase (4 U/ml), lactate dehydrogenase (8 U/ml), and antifoam (50 ppm) (concentrations expressed are final assay concentrations). The pH was adjusted to 6.80 at 22 °C by addition of potassium hydroxide. Lead optimization assays were performed with a more sensitive pyruvate kinase/horseradish peroxidase/pyruvate oxidase-coupled ATPase assay containing the following reagents: Potassium PIPES (12 mM), MgCl2 (2 mM), KCl (100 mM), ATP (0.15 mM), BSA (0.05 mg/ml), potassium phosphate (2 mM), amplex red (0.1 mM), PEP (0.1 mM), pyruvate kinase (4 U/ml), horseradish peroxidase (0.5 U/ml), pyruvate oxidase (0.5 U/ml), and antifoam (50 ppm) (concentrations expressed are final assay concentrations). The pH was adjusted to 7.00 at 22 °C by addition of potassium hydroxide.
The protein components specific to this assay are chicken gizzard smooth muscle myosin subfragment-1 that has been chemically crosslinked to either cardiac or skeletal actin using an excess of 1-Ethyl-3-[3-dimethylaminopropyl]carbodiimide hydrochloride and N-hydroxysuccinimide. The exact concentration of the crosslinked smooth muscle myosin in the assay is determined empirically, by titration to achieve a desired rate of ATP hydrolysis. The concentration varies between protein preparations due to variations in the fraction of active molecules in each preparation.
Compound dose response assays are performed by first preparing a dilution series of test compound, each with an assay mixture containing potassium PIPES, MgCl2, KCl, ATP, BSA, potassium phosphate, amplex red, PEP, crosslinked smooth muscle actomyosin (subfragment-1), antifoam, and water. The assay is started by adding an equal volume of solution containing potassium Pipes, MgCl2, KCl, BSA, potassium phosphate, pyruvate kinase, horseradish peroxidase, pyruvate oxidase, antifoam, and water. ATP hydrolysis is monitored by measuring the fluorescence of amplex red (excitation at 480 nm, emission at 615 nm). The resulting dose response curve is fit by the 4 parameter equation y=Bottom+((Top-Bottom)/(1+((IC50/X)^Hill))). The IC50 is defined as the concentration at which ATPase activity is midway between the top and bottom of the dose response curve.
As for `CN(CCO)c1ccc(C(=O)NCc2cccnc2)c(NCCc2cccc(F)c2)n1` [(2-{[2-(3-fluorophenyl)ethyl]amino}-6-[(2-hydroxyethyl)methylamino](3-pyridyl))-N-(3-pyridylmethyl)carboxamide], the IC50 worked out at 45.4 µM.

On to `CC(O)CN(C)c1ccc(C(=O)NCc2cccnc2)c(NCCc2cccc(F)c2)n1` (stereo not shown) [(2-{[2-(3-fluorophenyl)ethyl]amino}-6-[(2-hydroxypropyl)methylamino](3-pyridyl))-N-(3-pyridylmethyl)carboxamide], for which the IC50 stood at 10.5 µM.

As for `COCCNc1ccc(C(=O)NCc2cccnc2)c(NCCc2cccc(F)c2)n1` [(2-{[2-(3-fluorophenyl)ethyl]amino}-6-[(2-methoxyethyl)amino](3-pyridyl))-N-(3-pyridylmethyl)carboxamide], the IC50 stood at 7.62 µM.

Turning to `O=C(NCc1cccnc1)c1ccc(NCc2ccccn2)nc1NCCc1cccc(F)c1` [(2-{[2-(3-fluorophenyl)ethyl]amino}-6-[(2-pyridylmethyl)amino](3-pyridyl))-N-(3-pyridylmethyl)carboxamide], the IC50 came out at 10.8 µM. Next, `O=C(NCc1cccnc1)c1ccc(NCCCO)nc1NCCc1cccc(F)c1` [(2-{[2-(3-fluorophenyl)ethyl]amino}-6-[(3-hydroxypropyl)amino](3-pyridyl))-N-(3-pyridylmethyl)carboxamide]: 8.47 µM. Consider `COCCCNc1ccc(C(=O)NCc2cccnc2)c(NCCc2cccc(F)c2)n1` [(2-{[2-(3-fluorophenyl)ethyl]amino}-6-[(3-methoxypropyl)amino](3-pyridyl))-N-(3-pyridylmethyl)carboxamide], for which the IC50 is 11 µM. Consider `O=C(NCc1cccnc1)c1ccc(NCc2cccnc2)nc1NCCc1cccc(F)c1` [(2-{[2-(3-fluorophenyl)ethyl]amino}-6-[(3-pyridylmethyl)amino](3-pyridyl))-N-(3-pyridylmethyl)carboxamide], for which the IC50 worked out at 5.61 µM.

Consider `O=C(NCc1cccnc1)c1ccc(NCc2ccncc2)nc1NCCc1cccc(F)c1` [(2-{[2-(3-fluorophenyl)ethyl]amino}-6-[(4-pyridylmethyl)amino](3-pyridyl))-N-(3-pyridylmethyl)carboxamide], for which the IC50 turned out to be 34 µM. The same measure for `O=C(NCc1ccccn1)c1cc(Br)cnc1NCCc1cccc(F)c1` [(5-bromo-2-{[2-(3-fluorophenyl)ethyl]amino}(3-pyridyl))-N-(2-pyridylmethyl)carboxamide]: 11.8 µM; for `Cc1cccc(CNC(=O)c2cc(Br)cnc2NCCc2cccc(F)c2)n1` [(5-bromo-2-{[2-(3-fluorophenyl)ethyl]amino}(3-pyridyl))-N-[(6-methyl(2-pyridyl))methyl]carboxamide]: 17.7 µM; for `O=C(NCc1ccccn1)c1cc(Br)c(Cl)nc1NCCc1cccc(F)c1` [(5-bromo-6-chloro-2-{[2-(3-fluorophenyl)ethyl]amino}(3-pyridyl))-N-(2-pyridylmethyl)carboxamide]: 17.3 µM. The same measure for `N#Cc1cnc(NCCc2cccc(F)c2)c(C(=O)NCc2ccccn2)c1` [(5-cyano-2-{[2-(3-fluorophenyl)ethyl]amino}(3-pyridyl))-N-(2-pyridylmethyl)carboxamide]: 12.7 µM; for `CC(C)=C(C)c1ccc(C(=O)NCc2cccnc2)c(NCCc2cccc(F)c2)n1` [(6-(1,2-dimethylprop-1-enyl)-2-{[2-(3-fluorophenyl)ethyl]amino}(3-pyridyl))-N-(3-pyridylmethyl)carboxamide]: 2.77 µM; for `C=C(OCC)c1ccc(C(=O)NCc2cccnc2)c(NCCc2cccc(F)c2)n1` [(6-(1-ethoxyvinyl)-2-{[2-(3-fluorophenyl)ethyl]amino}(3-pyridyl))-N-(3-pyridylmethyl)carboxamide]: 0.702 µM. Take `COC/C=C/c1ccc(C(=O)NCc2cccnc2)c(NCCc2cccc(F)c2)n1` [(6-((1E)-3-methoxyprop-1-enyl)-2-{[2-(3-fluorophenyl)ethyl]amino}(3-pyridyl))-N-(3-pyridylmethyl)carboxamide]: the IC50 was found to be 0.927 µM. Next, `C/C=C/c1ccc(C(=O)NCc2cccnc2)c(NCCc2cccc(F)c2)n1` [(6-((1E)prop-1-enyl)-2-{[2-(3-fluorophenyl)ethyl]amino}(3-pyridyl))-N-(3-pyridylmethyl)carboxamide]: 0.302 µM; `C/C=C/c1ccc(C(=O)NCc2cccnc2CN)c(NCCc2cccc(F)c2)n1` [(6-((1E)prop-1-enyl)-2-{[2-(3-fluorophenyl)ethyl]amino}(3-pyridyl))-N-{[2-(aminomethyl)(3-pyridyl)]methyl}carboxamide]: 0.038 µM; `C/C=C/c1nc(NCCc2cccc(F)c2)c(C(=O)NCc2cccnc2)cc1Br` [(6-((1E)prop-1-enyl)-5-bromo-2-{[2-(3-fluorophenyl)ethyl]amino}(3-pyridyl))-N-(3-pyridylmethyl)carboxamide]: 0.78 µM. Next, `C/C=C/c1nc(NCCc2cccc(F)c2)c(C(=O)NCc2cccnc2)cc1C#N` [(6-((1E)prop-1-enyl)-5-cyano-2-{[2-(3-fluorophenyl)ethyl]amino}(3-pyridyl))-N-(3-pyridylmethyl)carboxamide]: 0.361 µM; `C/C=C/c1nc(NCCc2cccc(F)c2)c(C(=O)NCc2cccnc2CNC(=O)OC(C)(C)C)cc1F` [(6-((1E)prop-1-enyl)-5-fluoro-2-{[2-(3-fluorophenyl)ethyl]amino}(3-pyridyl))-N-[(2-{[(tert-butoxy)carbonylamino]methyl}(3-pyridyl))methyl]carboxamide]: 11.7 µM. In the case of `C/C=C/c1nc(NCCc2cccc(F)c2)c(C(=O)NCc2cccnc2CN)cc1F` [(6-((1E)prop-1-enyl)-5-fluoro-2-{[2-(3-fluorophenyl)ethyl]amino}(3-pyridyl))-N-{[2-(aminomethyl)(3-pyridyl)]methyl}carboxamide], the IC50 was determined as 0.0805 µM. The same measure for `C/C=C(/C)c1ccc(C(=O)NCc2cccnc2)c(NCCc2cccc(F)c2)n1` [(6-((1Z)-1-methylprop-1-enyl)-2-{[2-(3-fluorophenyl)ethyl]amino}(3-pyridyl))-N-(3-pyridylmethyl)carboxamide]: 10.5 µM. Next, `CN(C)c1ccc(C(=O)NCc2cccnc2)c(NCCc2cccc(F)c2)n1` [(6-(dimethylamino)-2-{[2-(3-fluorophenyl)ethyl]amino}(3-pyridyl))-N-(3-pyridylmethyl)carboxamide]: 4.92 µM. The same measure for `CCOC(C)c1ccc(C(=O)NCc2cccnc2)c(NCCc2cccc(F)c2)n1` (stereo not shown) [(6-(ethoxyethyl)-2-{[2-(3-fluorophenyl)ethyl]amino}(3-pyridyl))-N-(3-pyridylmethyl)carboxamide]: 73 µM. `CN(C)/C(=N/C#N)c1ccc(C(=O)NCc2cccnc2)c(NCCc2cccc(F)c2)n1` [(6-[(1E)-1-(dimethylamino)-2-cyano-2-azavinyl]-2-{[2-(3-fluorophenyl)ethyl]amino}(3-pyridyl))-N-(3-pyridylmethyl)carboxamide]: the IC50 was found to be 5.19 µM. The same measure for `NC(=O)CCCNc1ccc(C(=O)NCc2cccnc2)c(NCCc2cccc(F)c2)n1` [(6-[(3-carbamoylpropyl)amino]-2-{[2-(3-fluorophenyl)ethyl]amino}(3-pyridyl))-N-(3-pyridylmethyl)carboxamide]: 42.8 µM; for `NC(=O)CCCCNc1ccc(C(=O)NCc2cccnc2)c(NCCc2cccc(F)c2)n1` [(6-[(4-carbamoylbutyl)amino]-2-{[2-(3-fluorophenyl)ethyl]amino}(3-pyridyl))-N-(3-pyridylmethyl)carboxamide]: 6.74 µM. Next, `N#CNC(=N)c1ccc(C(=O)NCc2cccnc2)c(NCCc2cccc(F)c2)n1` [(6-[(cyanoamino)iminomethyl]-2-{[2-(3-fluorophenyl)ethyl]amino}(3-pyridyl))-N-(3-pyridylmethyl)carboxamide]: 0.231 µM; `CN(C)C(=N)c1ccc(C(=O)NCc2cccnc2)c(NCCc2cccc(F)c2)n1` [(6-[(dimethylamino)iminomethyl]-2-{[2-(3-fluorophenyl)ethyl]amino}(3-pyridyl))-N-(3-pyridylmethyl)carboxamide]: 17.3 µM. `CC(=O)c1ccc(C(=O)NCc2cccnc2)c(NCCc2cccc(F)c2)n1` [(6-acetyl-2-{[2-(3-fluorophenyl)ethyl]amino}(3-pyridyl))-N-(3-pyridylmethyl)carboxamide]: the IC50 is 24.8 µM. As to `N#Cc1ccc(C(=O)NCc2cccnc2)c(NCCc2cccc(F)c2)n1` [(6-cyano-2-{[2-(3-fluorophenyl)ethyl]amino}(3-pyridyl))-N-(3-pyridylmethyl)carboxamide], the IC50 turned out to be 65.8 µM.
